Data as given in ChEMBL document CHEMBL1201862, “PubChem BioAssay data set” (2004).
Activity calls are given as the source filed them.

Columns and labels:
[1] = Luminescence-based cell-based high throughput dose response assay to identify activators of the DAF-12 from the parasite S. stercoralis (ssDAF-12).; type: functional
[2] = Luminescence Cell-Based Dose Response HTS to Identify Activators of Luciferase Translation or Activity in H4 […] Cells. [Related pubchem assays: 1829 (Project Summary), 1814 (Primary HTS)]; type: functional
[3] = target: T1, Oxysterols receptor LXR-beta (Homo sapiens, UniProt P55055); assay: LXR agonists, Gal4 luciferase reporter, dose response, counter-screen for ssDAF-12 agonist project, cell-based, luminescence, HEK293, S. stercoralis campaign (AID 720737); type: functional; conditions: read-out: IC50 (the source's name)
T1 sequence (P55055 whole entry): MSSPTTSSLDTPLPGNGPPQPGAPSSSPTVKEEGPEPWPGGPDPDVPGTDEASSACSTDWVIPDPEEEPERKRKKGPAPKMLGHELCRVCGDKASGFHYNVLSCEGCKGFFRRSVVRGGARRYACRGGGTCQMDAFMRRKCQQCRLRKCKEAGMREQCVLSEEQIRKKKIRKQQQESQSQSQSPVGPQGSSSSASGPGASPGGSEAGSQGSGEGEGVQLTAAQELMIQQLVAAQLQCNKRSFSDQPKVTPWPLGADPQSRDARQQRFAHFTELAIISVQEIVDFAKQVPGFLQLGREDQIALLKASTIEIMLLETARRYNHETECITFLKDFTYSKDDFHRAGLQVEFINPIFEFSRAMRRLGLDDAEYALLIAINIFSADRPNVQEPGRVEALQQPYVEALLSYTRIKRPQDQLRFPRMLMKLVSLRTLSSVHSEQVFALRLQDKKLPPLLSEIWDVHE

[4] = antimalarial activity against Dd2 parasites – SYBR Green fluorescence, erythrocytes, dry powder, set 2, dose response (AID 1159574); type: functional, cell-based
[5] = TB: CFU replicating Measured in Microorganism System Using Imaging - 7108-05_Inhibitor_Dose_DryPowder_Activity_Set2.; type: functional
[6] = target: T2, Carboxy-terminal domain RNA polymerase II polypeptide A small phosphatase 1 (Homo sapiens, UniProt Q9GZU7); assay: CTDSP1 inhibitors, concentration-response, biochemical, absorbance readout, ultra-high-throughput screen actives (AID 540297); type: functional
T2 sequence (Q9GZU7 whole entry): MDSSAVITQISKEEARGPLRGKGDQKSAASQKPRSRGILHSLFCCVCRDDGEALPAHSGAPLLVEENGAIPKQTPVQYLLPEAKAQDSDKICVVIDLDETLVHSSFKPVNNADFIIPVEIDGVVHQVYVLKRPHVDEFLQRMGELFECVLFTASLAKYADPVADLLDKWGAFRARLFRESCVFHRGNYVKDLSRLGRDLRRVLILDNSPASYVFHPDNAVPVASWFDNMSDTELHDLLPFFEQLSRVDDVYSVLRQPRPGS

[7] = target: T3, Caspase-6 (Homo sapiens, UniProt P55212); assay: inhibition of CASP6 peptide cleavage – biochemical, VEID-R110 fluorescence, cherry-pick, dose response (AID 720632)
T3 sequence (P55212 whole entry): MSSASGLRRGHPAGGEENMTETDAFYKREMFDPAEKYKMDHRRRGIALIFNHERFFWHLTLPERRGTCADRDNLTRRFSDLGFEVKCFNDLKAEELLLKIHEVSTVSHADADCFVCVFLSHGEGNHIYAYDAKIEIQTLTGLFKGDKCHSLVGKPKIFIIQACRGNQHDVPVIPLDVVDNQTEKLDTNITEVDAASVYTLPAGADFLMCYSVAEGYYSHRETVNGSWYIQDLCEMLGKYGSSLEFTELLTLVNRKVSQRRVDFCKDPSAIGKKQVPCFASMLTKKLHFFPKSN

[8] = Counterscreen for activators of the function of SWI/SNF related, matrix associated, actin dependent regulator of chromatin, subfamily a, member 2 (SMARCA2, BRM): Luminescence-based cell-based high throughput dose response assay to identify non-selective compounds using the VP16 reporter assay.; type: functional
[9] = target: ELAV-like protein 1 (Homo sapiens, UniProt Q15717); assay: Identify HuR specific inhibitors.; type: functional
[10] = target: SWI/SNF-related matrix-associated actin-dependent regulator of chromatin subfamily A member 2 (Homo sapiens, UniProt P51531); assay: Luminescence-based cell-based high throughput dose response assay to identify activators of the function of SWI/SNF related, matrix associated, actin dependent regulator of chromatin, subfamily a, member 2 (SMARCA2, BRM).; type: functional
[11] = target: T4, Phospholipase D2 (Homo sapiens, UniProt O14939); assay: Discovery of PLD2 inhibitors using the Purified Enzyme Concentration Response Assay.; type: functional
[12] = target: Phospholipase D1 (Homo sapiens, UniProt Q13393); assay: PLD1 Cellular Concentration Response Study.; type: functional
[13] = target: T4, Phospholipase D2; assay: PLD2 Cellular Concentration Response Study.; type: functional
[14] = cytotoxicity toward HCT116 cells – cell-based, CellTiter-Glo luminescence, IC50, dose response (AID 1117332); type: functional; conditions: HCT-116
[15] = cytotoxicity toward HT-29 cells – cell-based, CellTiter-Glo luminescence, IC50, dose response (AID 1117330); type: functional
[16] = cytotoxicity toward Colo320 cells – cell-based, CellTiter-Glo luminescence, IC50, dose response (AID 1117334); type: functional; conditions: COLO 320
[17] = Reduced DLD-1 viability, concentration-response, CellTiter-Glo luminescence (AID 1117352); type: functional
[18] = RKO cell viability reduction, dose response, CellTiter-Glo luminescence (AID 1117322); type: functional
[19] = CellTiter-Glo luminescence survival assay, SW480 colon tumor line, concentration-response curve, half-maximal inhibitory concentration (AID 1117338); type: functional
[20] = HCT116 cell viability decrease, GSK3B pretreatment – CellTiter-Glo, IC50, dose response (AID 1117339); type: functional; conditions: HCT-116
[21] = rise of 2N DNA cells, HeLa – IC50, dose response (AID 1117349); type: functional, cell-based
[22] = rise of 4N DNA cells, HeLa – IC50, dose response (AID 1117351); type: functional, cell-based
[23] = SNU-C1 cell viability reduction, dose response, CellTiter-Glo luminescence (AID 1117323); type: functional, cell-based

T4 sequence (O14939 whole entry): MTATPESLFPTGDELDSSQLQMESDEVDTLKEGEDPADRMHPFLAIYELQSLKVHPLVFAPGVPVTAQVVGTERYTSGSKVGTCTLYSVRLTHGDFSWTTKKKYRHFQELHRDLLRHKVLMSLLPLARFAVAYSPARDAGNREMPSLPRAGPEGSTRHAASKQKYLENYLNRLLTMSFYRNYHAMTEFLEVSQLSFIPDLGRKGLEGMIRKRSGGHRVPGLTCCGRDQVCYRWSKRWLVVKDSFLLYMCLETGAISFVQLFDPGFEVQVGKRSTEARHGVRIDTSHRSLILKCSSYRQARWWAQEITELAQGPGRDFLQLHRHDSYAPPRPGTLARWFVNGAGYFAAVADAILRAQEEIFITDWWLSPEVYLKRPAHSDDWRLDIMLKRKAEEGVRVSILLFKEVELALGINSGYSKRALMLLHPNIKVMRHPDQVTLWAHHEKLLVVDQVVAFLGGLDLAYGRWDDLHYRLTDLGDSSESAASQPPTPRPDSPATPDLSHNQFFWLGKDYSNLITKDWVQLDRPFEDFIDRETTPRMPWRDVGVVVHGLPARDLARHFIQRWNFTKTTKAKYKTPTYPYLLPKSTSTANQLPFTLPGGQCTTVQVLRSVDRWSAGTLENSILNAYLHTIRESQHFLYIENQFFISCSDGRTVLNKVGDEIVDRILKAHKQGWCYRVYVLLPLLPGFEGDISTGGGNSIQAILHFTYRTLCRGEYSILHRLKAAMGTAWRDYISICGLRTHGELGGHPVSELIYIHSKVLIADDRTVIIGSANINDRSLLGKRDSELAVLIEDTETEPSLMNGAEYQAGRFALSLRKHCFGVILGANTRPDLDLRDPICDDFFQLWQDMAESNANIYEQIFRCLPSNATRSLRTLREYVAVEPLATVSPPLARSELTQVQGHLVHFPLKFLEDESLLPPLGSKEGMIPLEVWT
Phospholipase D1, sequence (Q13393 whole entry): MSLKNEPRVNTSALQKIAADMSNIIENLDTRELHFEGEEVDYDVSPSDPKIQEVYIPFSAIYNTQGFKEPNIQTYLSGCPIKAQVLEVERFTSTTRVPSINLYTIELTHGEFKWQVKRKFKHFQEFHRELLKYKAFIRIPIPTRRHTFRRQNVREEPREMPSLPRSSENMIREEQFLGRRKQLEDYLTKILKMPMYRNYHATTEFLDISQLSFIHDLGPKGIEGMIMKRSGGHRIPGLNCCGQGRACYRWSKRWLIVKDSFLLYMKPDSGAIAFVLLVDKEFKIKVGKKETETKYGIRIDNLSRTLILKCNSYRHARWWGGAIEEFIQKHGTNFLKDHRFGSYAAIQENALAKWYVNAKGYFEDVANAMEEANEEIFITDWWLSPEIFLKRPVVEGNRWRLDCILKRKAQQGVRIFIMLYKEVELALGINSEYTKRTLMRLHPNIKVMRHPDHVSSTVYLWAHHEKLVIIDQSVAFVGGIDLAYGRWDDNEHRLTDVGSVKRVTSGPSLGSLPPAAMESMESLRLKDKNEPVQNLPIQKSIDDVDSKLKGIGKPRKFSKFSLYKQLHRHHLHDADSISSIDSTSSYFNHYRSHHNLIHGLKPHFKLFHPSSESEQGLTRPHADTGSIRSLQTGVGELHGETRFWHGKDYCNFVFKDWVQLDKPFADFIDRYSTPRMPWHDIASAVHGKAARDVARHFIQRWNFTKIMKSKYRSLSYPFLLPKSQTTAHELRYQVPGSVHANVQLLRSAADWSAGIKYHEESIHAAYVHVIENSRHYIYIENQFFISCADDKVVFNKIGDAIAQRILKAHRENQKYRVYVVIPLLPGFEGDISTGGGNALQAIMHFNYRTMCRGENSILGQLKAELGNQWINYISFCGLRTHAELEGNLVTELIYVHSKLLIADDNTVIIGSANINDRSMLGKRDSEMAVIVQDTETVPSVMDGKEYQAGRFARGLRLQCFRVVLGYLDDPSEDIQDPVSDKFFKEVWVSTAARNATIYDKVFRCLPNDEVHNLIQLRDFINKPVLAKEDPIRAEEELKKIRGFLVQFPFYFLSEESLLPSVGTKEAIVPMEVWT
SWI/SNF-related matrix-associated actin-dependent regulator of chromatin subfamily A member 2, sequence (P51531 whole entry): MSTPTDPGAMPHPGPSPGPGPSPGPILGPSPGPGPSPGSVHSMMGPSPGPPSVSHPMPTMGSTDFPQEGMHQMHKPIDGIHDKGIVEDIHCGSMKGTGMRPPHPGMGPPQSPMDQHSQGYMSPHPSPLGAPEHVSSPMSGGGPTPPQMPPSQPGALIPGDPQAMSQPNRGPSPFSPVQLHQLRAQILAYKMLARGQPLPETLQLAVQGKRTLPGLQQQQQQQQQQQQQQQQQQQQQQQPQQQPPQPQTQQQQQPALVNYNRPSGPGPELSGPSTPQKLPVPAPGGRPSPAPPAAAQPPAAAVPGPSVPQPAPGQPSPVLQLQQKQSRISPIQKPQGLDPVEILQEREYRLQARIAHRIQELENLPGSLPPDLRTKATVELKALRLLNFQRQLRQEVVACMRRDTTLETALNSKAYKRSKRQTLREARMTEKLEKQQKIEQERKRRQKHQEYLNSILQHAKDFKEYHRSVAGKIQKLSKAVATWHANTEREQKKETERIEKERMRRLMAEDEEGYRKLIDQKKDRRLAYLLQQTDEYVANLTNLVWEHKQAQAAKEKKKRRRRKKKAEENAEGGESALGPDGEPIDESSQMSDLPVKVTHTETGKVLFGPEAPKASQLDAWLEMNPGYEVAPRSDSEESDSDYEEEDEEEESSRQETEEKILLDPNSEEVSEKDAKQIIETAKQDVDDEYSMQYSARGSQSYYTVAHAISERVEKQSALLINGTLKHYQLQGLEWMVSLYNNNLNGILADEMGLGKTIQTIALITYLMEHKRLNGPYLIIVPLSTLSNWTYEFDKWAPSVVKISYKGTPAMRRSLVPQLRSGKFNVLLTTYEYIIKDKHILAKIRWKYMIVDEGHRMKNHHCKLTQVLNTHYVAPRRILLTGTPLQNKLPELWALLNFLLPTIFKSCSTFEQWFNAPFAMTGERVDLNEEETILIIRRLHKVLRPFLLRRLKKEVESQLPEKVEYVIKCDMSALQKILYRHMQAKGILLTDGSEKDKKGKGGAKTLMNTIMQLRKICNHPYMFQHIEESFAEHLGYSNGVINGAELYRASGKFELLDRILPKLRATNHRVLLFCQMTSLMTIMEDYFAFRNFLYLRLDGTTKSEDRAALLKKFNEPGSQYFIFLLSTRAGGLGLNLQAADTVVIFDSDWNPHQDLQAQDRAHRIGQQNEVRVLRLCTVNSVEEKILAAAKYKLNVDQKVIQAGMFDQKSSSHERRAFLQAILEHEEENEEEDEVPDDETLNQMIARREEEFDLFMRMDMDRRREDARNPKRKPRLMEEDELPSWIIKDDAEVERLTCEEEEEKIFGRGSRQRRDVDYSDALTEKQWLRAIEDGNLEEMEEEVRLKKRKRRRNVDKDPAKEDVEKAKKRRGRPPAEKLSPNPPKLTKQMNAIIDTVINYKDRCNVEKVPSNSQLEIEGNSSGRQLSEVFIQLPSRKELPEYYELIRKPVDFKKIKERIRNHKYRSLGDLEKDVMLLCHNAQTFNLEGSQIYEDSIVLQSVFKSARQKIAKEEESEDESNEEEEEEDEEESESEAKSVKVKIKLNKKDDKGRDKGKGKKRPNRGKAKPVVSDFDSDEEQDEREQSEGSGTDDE
ELAV-like protein 1, sequence (Q15717 whole entry): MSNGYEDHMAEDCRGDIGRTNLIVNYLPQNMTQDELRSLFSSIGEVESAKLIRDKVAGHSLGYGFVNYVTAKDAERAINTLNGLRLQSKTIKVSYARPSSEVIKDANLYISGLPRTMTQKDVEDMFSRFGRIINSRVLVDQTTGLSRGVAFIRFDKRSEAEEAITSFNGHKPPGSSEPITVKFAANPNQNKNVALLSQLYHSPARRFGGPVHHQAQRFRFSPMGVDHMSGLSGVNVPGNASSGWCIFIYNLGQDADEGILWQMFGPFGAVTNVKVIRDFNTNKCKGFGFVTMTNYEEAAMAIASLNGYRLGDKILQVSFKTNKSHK

Cc1c(C(=O)Nc2ccccn2)oc2ccccc12
IC50 [1]: > 67.5 µM (inactive) | EC50 [2]: 0.901 µM (active) | EC50 [3]: > 67.5 µM (inactive)

COc1ccc(S(=O)(=O)N(C)C[C@H]2OCc3ccccc3-c3c(n(C)c4ccccc34)C(=O)N([C@@H](C)CO)C[C@@H]2C)cc1
AC50 [4]: 1.47 µM (active)

Cn1c(NC(=O)c2ccccc2)nc2ncccc21
AbsAC90 [5]: 724.55 µM

CC#CC#Cc1cccc(=O)o1
IC50 [6]: 16.5 µM (active) | AC50 [7]: 9.68 µM (active) | EC50 [8]: > 91 µM (inactive) | IC50 [9]: 44.4 µM (active) | EC50 [10]: > 91 µM (inactive)

O=C(NCCN1CCC2(CC1)C(=O)NCN2Cc1cccnc1)c1ccc2ccccc2c1
IC50 [11]: 8.7 µM (active) | IC50 [12]: 20 µM (active) | IC50 [13]: 0.46 µM (active)

O=C(O)CCc1nc2ccccc2[nH]1 [PROCODAZOLE]
IC50 [14]: > 20 µM (inactive) | IC50 [15]: > 20 µM (inactive) | IC50 [16]: > 20 µM (inactive) | IC50 [17]: 2.42 µM (active) | IC50 [18]: > 20 µM (inactive) | IC50 [19]: > 20 µM (inactive) | IC50 [20]: 2.2 µM (active) | IC50 [21]: > 10 µM (inactive) | IC50 [22]: > 10 µM (inactive) | IC50 [23]: > 20 µM (inactive)
